# System: yeast genes (expressed mRNA)
# Assay: DNA chip measurement of expressed mRNA of yeast genes after culture with a toxic chemical substance
# Type: cell-based, Saccharomyces cerevisiae S288C
# Conditions: for level of expressed mRNA in the presence of chemical substance / level in the absence of chemical substance: cultured two hours with the chemical substance; for The level of expressed mRNA in the presence of chemical substance/The level of expressed mRNA in the absence of chemical substance: cultured two hours with substance
# How it was run: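 Yeast S288C, YPD 25° C; toxicant at log phase, 2 h, sublethal growth-inhibiting conc.; no-chemical control. Hot SDS/acetate RNA extraction, oligo-dT mRNA, Cy3/Cy5-dUTP RT. Whole-genome chip, 65° C >12 h. Readout: treated/control intensity ratio, ≥2 significant.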
structure (smiles),measurement,setting,value
"[Cl][Pb][Cl] [(4), PbCl2]","The level of expressed mRNA in the presence of chemical substance/The level of expressed mRNA in the absence of chemical substance, yeast gene YBR036C","gene YBR036C, Metabolism protein genes, DNA chip fluorescence ratio",1.2
same,"The level of expressed mRNA in the presence of chemical substance/The level of expressed mRNA in the absence of chemical substance, yeast gene YBR298C","gene YBR298C, Metabolism protein genes, DNA chip fluorescence ratio",2.3
same,"The level of expressed mRNA in the presence of chemical substance/The level of expressed mRNA in the absence of chemical substance, yeast gene YDL067C","gene YDL067C (mitochondria-located protein gene), yeast cultured two hours with chemical substance, DNA chip fluorescence ratio to control",1.3
same,"The level of expressed mRNA in the presence of chemical substance/The level of expressed mRNA in the absence of chemical substance, yeast gene YDL078C","gene YDL078C, Metabolism protein genes, DNA chip fluorescence ratio",0.8
same,"The level of expressed mRNA in the presence of chemical substance/The level of expressed mRNA in the absence of chemical substance, yeast gene YDL215C","gene YDL215C, Metabolism protein genes, DNA chip fluorescence ratio",1.6
same,"The level of expressed mRNA in the presence of chemical substance/The level of expressed mRNA in the absence of chemical substance, yeast gene YDR079W","gene YDR079W (mitochondria-located protein gene), yeast cultured two hours with chemical substance, DNA chip fluorescence ratio to control",1.1
same,"The level of expressed mRNA in the presence of chemical substance/The level of expressed mRNA in the absence of chemical substance, yeast gene YDR297W","gene YDR297W, Metabolism protein genes, DNA chip fluorescence ratio",1.1
same,"The level of expressed mRNA in the presence of chemical substance/The level of expressed mRNA in the absence of chemical substance, yeast gene YDR387C","gene YDR387C, Metabolism protein genes, DNA chip fluorescence ratio",2.2
same,"The level of expressed mRNA in the presence of chemical substance/The level of expressed mRNA in the absence of chemical substance, yeast gene YGL035C","gene YGL035C, Metabolism protein genes, DNA chip fluorescence ratio",1.4
same,"The level of expressed mRNA in the presence of chemical substance/The level of expressed mRNA in the absence of chemical substance, yeast gene YGR062C","gene YGR062C (mitochondria-located protein gene), yeast cultured two hours with chemical substance, DNA chip fluorescence ratio to control",1.4
same,"The level of expressed mRNA in the presence of chemical substance/The level of expressed mRNA in the absence of chemical substance, yeast gene YGR287C","gene YGR287C, Metabolism protein genes, DNA chip fluorescence ratio",1.5
same,"The level of expressed mRNA in the presence of chemical substance/The level of expressed mRNA in the absence of chemical substance, yeast gene YJL070C","gene YJL070C, Metabolism protein genes, DNA chip fluorescence ratio",1.2
same,"The level of expressed mRNA in the presence of chemical substance/The level of expressed mRNA in the absence of chemical substance, yeast gene YJL096W","gene YJL096W (mitochondria-located protein gene), yeast cultured two hours with chemical substance, DNA chip fluorescence ratio to control",1.3
same,"The level of expressed mRNA in the presence of chemical substance/The level of expressed mRNA in the absence of chemical substance, yeast gene YJL180C","gene YJL180C (mitochondria-located protein gene), yeast cultured two hours with chemical substance, DNA chip fluorescence ratio to control",1.3
same,"The level of expressed mRNA in the presence of chemical substance/The level of expressed mRNA in the absence of chemical substance, yeast gene YKR009C","gene YKR009C, Metabolism protein genes, DNA chip fluorescence ratio",0.9
same,"The level of expressed mRNA in the presence of chemical substance/The level of expressed mRNA in the absence of chemical substance, yeast gene YLR295C","gene YLR295C (mitochondria-located protein gene), yeast cultured two hours with chemical substance, DNA chip fluorescence ratio to control",1.7
same,"The level of expressed mRNA in the presence of chemical substance/The level of expressed mRNA in the absence of chemical substance, yeast gene YLR351C","gene YLR351C, Metabolism protein genes, DNA chip fluorescence ratio",1.5
same,"The level of expressed mRNA in the presence of chemical substance/The level of expressed mRNA in the absence of chemical substance, yeast gene YLR375W","gene YLR375W, Metabolism protein genes, DNA chip fluorescence ratio",0.9
same,"The level of expressed mRNA in the presence of chemical substance/The level of expressed mRNA in the absence of chemical substance, yeast gene YMR023C","gene YMR023C (mitochondria-located protein gene), yeast cultured two hours with chemical substance, DNA chip fluorescence ratio to control",1.9
same,"The level of expressed mRNA in the presence of chemical substance/The level of expressed mRNA in the absence of chemical substance, yeast gene YMR267W","gene YMR267W (mitochondria-located protein gene), yeast cultured two hours with chemical substance, DNA chip fluorescence ratio to control",0.9
same,"The level of expressed mRNA in the presence of chemical substance/The level of expressed mRNA in the absence of chemical substance, yeast gene YMR267W","gene YMR267W, Metabolism protein genes, DNA chip fluorescence ratio",0.9
same,"The level of expressed mRNA in the presence of chemical substance/The level of expressed mRNA in the absence of chemical substance, yeast gene YMR278W","gene YMR278W, Metabolism protein genes, DNA chip fluorescence ratio",1.0
same,"The level of expressed mRNA in the presence of chemical substance/The level of expressed mRNA in the absence of chemical substance, yeast gene YMR293C","gene YMR293C, Metabolism protein genes, DNA chip fluorescence ratio",2.2
same,"The level of expressed mRNA in the presence of chemical substance/The level of expressed mRNA in the absence of chemical substance, yeast gene YNL073W","gene YNL073W (mitochondria-located protein gene), yeast cultured two hours with chemical substance, DNA chip fluorescence ratio to control",1.7
same,"The level of expressed mRNA in the presence of chemical substance/The level of expressed mRNA in the absence of chemical substance, yeast gene YNR072W","gene YNR072W, Metabolism protein genes, DNA chip fluorescence ratio",0.7
same,"The level of expressed mRNA in the presence of chemical substance/The level of expressed mRNA in the absence of chemical substance, yeast gene YOL096C","gene YOL096C, Metabolism protein genes, DNA chip fluorescence ratio",1.6
same,"The level of expressed mRNA in the presence of chemical substance/The level of expressed mRNA in the absence of chemical substance, yeast gene YOR180C","gene YOR180C, Metabolism protein genes, DNA chip fluorescence ratio",1.0
same,"The level of expressed mRNA in the presence of chemical substance/The level of expressed mRNA in the absence of chemical substance, yeast gene YOR316C","gene YOR316C (mitochondria-located protein gene), yeast cultured two hours with chemical substance, DNA chip fluorescence ratio to control",1.5
same,"The level of expressed mRNA in the presence of chemical substance/The level of expressed mRNA in the absence of chemical substance, yeast gene YOR363C","gene YOR363C, Metabolism protein genes, DNA chip fluorescence ratio",1.3
same,"The level of expressed mRNA in the presence of chemical substance/The level of expressed mRNA in the absence of chemical substance, yeast gene YPL040C","gene YPL040C (mitochondria-located protein gene), yeast cultured two hours with chemical substance, DNA chip fluorescence ratio to control",1.7
same,"The level of expressed mRNA in the presence of chemical substance/The level of expressed mRNA in the absence of chemical substance, yeast gene YPL134C","gene YPL134C (mitochondria-located protein gene), yeast cultured two hours with chemical substance, DNA chip fluorescence ratio to control",1.6
same,"The level of expressed mRNA in the presence of chemical substance/The level of expressed mRNA in the absence of chemical substance, yeast gene YPR184W","gene YPR184W, Metabolism protein genes, DNA chip fluorescence ratio",2.2
same,level of expressed mRNA in the presence of chemical substance / level in the absence of chemical substance,yeast gene YAL018C,11.3
same,The level of expressed mRNA in the presence of chemical substance/The level of expressed mRNA in the absence of chemical substance,yeast gene YAL053W,2.1
same,level of expressed mRNA in the presence of chemical substance / level in the absence of chemical substance,yeast gene YAR047C,0.7
same,level of expressed mRNA in the presence of chemical substance / level in the absence of chemical substance,yeast gene YAR064W,2.8
same,level of expressed mRNA in the presence of chemical substance / level in the absence of chemical substance,yeast gene YBL044W,0.8
same,The level of expressed mRNA in the presence of chemical substance/The level of expressed mRNA in the absence of chemical substance,yeast gene YBL048W,2.8
same,The level of expressed mRNA in the presence of chemical substance/The level of expressed mRNA in the absence of chemical substance,yeast gene YBL107C,1.5
same,level of expressed mRNA in the presence of chemical substance / level in the absence of chemical substance,yeast gene YBR012C,0.8
same,level of expressed mRNA in the presence of chemical substance / level in the absence of chemical substance,yeast gene YBR066C,1.6
same,level of expressed mRNA in the presence of chemical substance / level in the absence of chemical substance,yeast gene YBR124W,0.4
same,level of expressed mRNA in the presence of chemical substance / level in the absence of chemical substance,yeast gene YBR162C,0.8
same,level of expressed mRNA in the presence of chemical substance / level in the absence of chemical substance,yeast gene YBR287W,2.4
same,level of expressed mRNA in the presence of chemical substance / level in the absence of chemical substance,yeast gene YCL056C,1.0
same,level of expressed mRNA in the presence of chemical substance / level in the absence of chemical substance,yeast gene YCR007C,2.9
same,level of expressed mRNA in the presence of chemical substance / level in the absence of chemical substance,yeast gene YDL046W,1.3
same,The level of expressed mRNA in the presence of chemical substance/The level of expressed mRNA in the absence of chemical substance,yeast gene YDL072C,2.1
same,The level of expressed mRNA in the presence of chemical substance/The level of expressed mRNA in the absence of chemical substance,yeast gene YDL204W,3.4
same,The level of expressed mRNA in the presence of chemical substance/The level of expressed mRNA in the absence of chemical substance,yeast gene YDL222C,3.9
same,level of expressed mRNA in the presence of chemical substance / level in the absence of chemical substance,yeast gene YDR090C,1.2
same,level of expressed mRNA in the presence of chemical substance / level in the absence of chemical substance,yeast gene YDR128W,0.9

# — US20100041089A1, “IMPROVED METHOD FOR DETECTING CHEMICAL […]” (priority 2006, published 2010)
